Results taken from US9980942B2, “Rejuvenation of precursor cells” (Children's Hospital Medical Center, priority 2012, dated 2018).

Columns and labels:
Cdc42 = target: T1, Cdc42 (Mus musculus, UniProt P60766); test: Cdc42-GTPase effector domain pull-down / Western blot; format: cell-based; details: CASIN 5 μM, aged lineage depleted bone marrow cells
T1 construct: lineage depleted BM cells (10^6) were lysed in a Mg2+ lysis/wash buffer; endogenous in cells; host or cells: lineage-depleted bone marrow (Lin- BM) cells from aged C57BL/6 mice
Procedure: Relative levels of GTP-bound Cdc42 were determined by an effector pull-down assay. Briefly, lineage depleted BM cells (10^6) were lysed in a Mg2+ lysis/wash buffer (Upstate cell signaling solutions) containing 10% glycerol, 25 mM sodium fluoride, 1 mM sodium orthovanadate and a protease inhibitor cocktail (Roche Diagnostics). Samples were incubated with PAK-1 binding domain/agarose beads and bound (activated) as well as unbound (non-activated) Cdc42 fractions were probed by immunoblotting with an anti-Cdc42 antibody (Millipore, rabbit polyclonal). Activated protein was normalized to total protein and/or β-actin (Sigma) and the relative amount was quantified by densitometry.

aged LT-HSCs = test: Competitive serial LT-HSC transplantation after ex vivo CASIN treatment; format: in vivo, mouse
Procedure: For competitive LT-HSC transplantation, young (2-4-month-old) and aged (20-26-month-old) C57BL/6 mice (Ly5.2^+) were used as donors. 200 LT-HSCs were sorted into 96 multi-well plates and cultured (either in suspension or adherent to fibronectin) for 16 hrs in HBSS+10% FBS±CASIN (5 μM) in a water jacketed incubator at 37° C., 5% CO2, 3% O2. Stem cells were then mixed with 3×10^5 BM cells from young (2-4-month-old) BoyJ competitor mice (Ly5.1^+) and then transplanted into BoyJ recipient mice (Ly5.1^+).
Peripheral blood (PB) chimerism was determined by FACS analysis every 8 weeks. 24 weeks post primary transplants, 2×10^6 BM cells from an individual primary recipient mouse were injected into an individual secondary pre-conditioned recipient BoyJ mouse. Experiment was performed three times with LT-HSCs cultured in suspension and two times with LTHSCs cultured on a fibronectin-coated substrate without any difference in experimental outcome. Primary transplanted mice were regarded engrafted when PB chimerism was higher or equal to 1.0% and contribution was detected in all lineages. Secondary transplanted mice were regarded as engrafted when PB chimerism was higher or equal to 0.5% and contribution was detected in all lineages.
PB and BM cell immunostaining was performed according to standard procedures and samples were analyzed on a LSRII flow cytometer (BD Biosciences). Lineage FACS analysis data are plotted as the percentage of B220+, CD3+ and Myeloid (Gr-1+, Mac-1+ and Gr-1+Mac-1+) cells among donor-derived Ly5.2^+ cells. As for early hematopoiesis analysis, mononuclear cells were isolated by low-density centrifugation (Histopaque 1083, Sigma) and stained with a cocktail of biotinylated lineage antibodies. After lineage depletion by magnetic separation (Dynalbeads, Invitrogen), cells were stained with anti-Sca-1 (clone D7) (eBioscience), anti-c-kit (clone 2B8) (eBioscience), anti-CD34 (clone RAM34) (eBioscience), anti-CD127 (clone A7R34) (eBioscience), anti-Flk-2 (clone A2F10) (eBioscience) and Streptavidin (eBioscience). Early hematopoiesis FACS analysis data were plotted as percentage of long-term hematopoietic stem cells (LTHSCs, gated as LSK CD34−/lowFlk2−), short-term hematopoietic stem cells (ST-HSCs, gated as LSK CD34+Flk2−) and lymphoid-primed multipotent progenitors (LMPPs, gated as LSK CD34+Flk2+) (Adolfsson et al., 2005) distribution among donor-derived LSKs (Linnegc-kit+sca-1+ cells). LSK and common lymphoid progenitor cells (CLP, gated as Lin−c-Kit−/low Sca-1−/low IL7Rα+) (Karsunky et al., 2008) were plotted as percentage among donor-derived Linneg cells. In order to isolate LT-HSCs, lineage depletion was performed to enrich for lineage negative cells. Lineage negative cells were then stained as aforementioned and sorted using a BD FACS Aria I or a BD FACS Aria III (BD Bioscience).

intestinal epithelium = test: In vivo rejuvenation of intestinal epithelium (immunohistochemistry); details: vs untreated aged mice
Procedure: To test the extent to which CASIN rejuvenates skin and intestinal epithelium in vivo, aged (22-24 month old B1 6) and young (10-12 week old B1 6) mice were injected with CASIN twice daily (2.4 mg/Kg in PBS and 15% EtOH). A group of control mice in each age group were not given the drug. The injections were given 6 hours apart for 5 days. After 28 days, the mice were sacrificed and skin and intestinal samples were processed for immunohistochemistry.
To further assess the effects of in vivo administration of CASIN on aging parameters in the intestinal epithelium, aged mice were treated with CASIN as described in Example 5. After 28 days, the mice were sacrificed and intestinal samples were processed for immunohistochemistry, including staining for intestinal stem cell markers Bmi1 and Lgr5.

aged HSCs = test: Whole genome expression profiling of HSCs; format: cell-based; details: CASIN treated aged HSCs
Description: Aged HSCs have distinct whole genome expression profiles. To define the effect of Cdc42 inhibition by CASIN on molecular pathways regulating HSCs, cDNA was derived from linearly amplified RNA from CASIN-treated or untreated aged or young HSCs, using tested amplification, array hybridization and bioinformatic analysis services provided by the company Miltenyi. The goal of these experiments was to identify changes in whole genome expression patterns or in functionally defined groups of genes, rather than changes in individual genes. Differences in expression of functional gene groups was confirmed by real-time RT-PCR of selected genes using the standard ABI/Taqman probe system.

dorsal skin = test: Wound healing of full-thickness excision wounds after CASIN injection; format: in vivo, mice
Procedure: To further assess the effects of in vivo administration of CASIN on aging parameters in the skin, aged mice are treated with CASIN as described in Example 5. The treated and untreated aged and young mice are then tested for and wound healing, as described below.
On day 28 after initial treatment with CASIN, each mouse is tested with 25 mm oblong full-thickness excision wounds (6 mice of each type per experiment), including the striated muscle layer (panniculus carnosus), on the dorsal skin of treated and untreated mice. One day after surgery a clear thin film of dried exudate covers the wounds in both untreated and treated mice. Build-up of dehydrated wound crusts or scabs begin at day 3 and become subsequently more extensive. In the aged, untreated mice, scabs are thicker and extravasation of blood, visible in the gaps within the scabs, is more frequent and extensive than that in the treated mice. In control young mice, and in treated aged mice, loss of wound scabs begins at day 17 and is complete in all mice by day 24 with wounds well-healed and epithelial covering restored. In contrast, the scabs in untreated aged mice start to come off partially around day 14, resulting in a scab with a gaping red wound field, which is evident even at 22 days. Healing of untreated aged mice wounds remains incomplete on day 24, and complete healing in all mice is observed between 25 and 31 days. These experiments indicate that transient treatment (days 1-5) with CASIN causes improved healing of skin wounds.

[1] = aged mice treated as in Example 5, after 28 days
[2] = treated aged mice, 25 mm full-thickness excision wounds

T1 sequence (P60766 whole entry, the tested form may be a part): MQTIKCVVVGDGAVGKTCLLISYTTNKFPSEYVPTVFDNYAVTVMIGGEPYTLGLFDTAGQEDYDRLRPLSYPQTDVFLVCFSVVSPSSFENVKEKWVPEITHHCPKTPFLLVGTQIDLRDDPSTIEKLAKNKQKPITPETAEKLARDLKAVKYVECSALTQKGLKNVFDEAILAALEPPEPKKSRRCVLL

OCCNC1CCCc2c1[nH]c1ccc(-c3ccccc3)cc21 (centres unmarked) [CASIN]
level of active Cdc42 (Cdc42-GTP) (Cdc42): reduced the elevated level of active Cdc42 observed in aged primitive hematopoietic cells to the level observed in young cells | contribution to the B-cell compartment in PB (aged LT-HSCs; primary recipients): increase | contribution to the myeloid lineage (aged LT-HSCs; primary recipients): reduced | frequency of donor-derived LT-HSCs among donor-derived LSKs (aged LT-HSCs; primary recipients): significantly reduced | B-cell and myeloid engraftment in PB and BM (aged LT-HSCs; secondary transplant): indistinguishable from young LT-HSCs | contribution to the LT-HSC pool in BM (aged LT-HSCs; secondary transplant): indistinguishable from young LT-HSCs | overall regenerative capacity (chimerism in PB) (aged LT-HSCs; secondary transplant, compared to aged LT-HSCs): increased and stable chimerism in PB | number of stem cells in crypts (Bmi1 and Lgr5 staining) (intestinal epithelium; [1]): renewed number of stem cells | shape, size and distribution of villi and crypts (intestinal epithelium; [1]): marked improvement | shape, number and density of crypts (intestinal epithelium; aged mice, 2.4 mg/Kg twice daily for 5 days, after 28 days): marked improvement | whole genome expression pattern (aged HSCs): largely resemble young HSCs | wound healing (dorsal skin; aged mice treated as in Example 5): respond similarly or nearly identical to the skin of young mice | loss of wound scabs begins (dorsal skin; [2]): 17 days | loss of wound scabs complete in all mice (dorsal skin; [2]): ≤ 24 days
